Measurements as given in patent US20250277066A1, “Substituted Pyridine-2,6-Bis(Phenylenephenolate) Complexes with Enhanced Solubility that are Useful as Catalyst Components for Olefin Polymerization” (ExxonMobil Chemical Patents Inc., priority 2022, published 2025).
“And” between values parts separate entries of the source, which are not always exact repeats. Equal entries are not always repeated.

Legend:
[1] = DSC melting point of polymers (TA-Q100); format: physicochemical
Description: Differential Scanning Calorimetry (DSC) measurements were performed on a TA-Q100 instrument to determine the melting point of the polymers. Samples were pre-annealed at 220° C. for 15 minutes and then allowed to cool to room temperature overnight. The samples were then heated to 220° C. at a rate of 100° C./minute and then cooled at a rate of 50° C./minute. Melting points were collected during the heating period. The results are reported in the Table 2 under the heading, Tm (° C.).

[2] = Solubility of complexes in isohexane (Method 1 or Method 2); format: physicochemical; details: ambient temperature (20° C.-25° C.), mass includes residual solvent
Description: Solubility studies for all other complexes were performed using material as synthesized. […] Solvents used were sparged with nitrogen (30-60 minutes) and dried over 3 Å mole sieves. Unless stated otherwise all measurements were performed at ambient temperature (20° C.-25° C.).
General procedure: Solubility was determined using the following Method 1 or Method 2. For calculations, a value of 0.672 g/mL was used for the density of isohexane.
Method 1: A tared vial was loaded with a small amount of the complex (actual mass recorded, including any residual solvent as noted above, typically 5-30 mg). Then a small stir bar (8 mm) was added. Solvent was then added and the mixture was stirred rapidly (1000 rpm). […] This process was repeated until either a clear solution was obtained (no visible solids or murkiness) or the vial was full. As the mixture approached homogeneity (i.e., few remaining solids observed) the volume of the solvent additions was kept small (<1 mL) to minimize excess beyond the solvent required to achieve homogeneity. The stir bar was then removed and the mass of the mixture was measured. If a clear solution had formed then the solubility of the complex was calculated as a single value, based on the mass of complex and the amount of solvent added to achieve a homogeneous solution. If the mixture remained heterogeneous (visible solids or murky), then the value reported is given as being “less than” the calculated value.
Method 2: A measured amount of complex (actual mass recorded, including any residual solvent as noted above) was added to a tared vial, followed by a stir bar. Dry isohexanes were added in small portions and the resulting mixture was stirred after each portion of isohexanes. If a clear solution had formed then the solubility was reported as a range, the lower bound of solubility calculated using the total solvent added to achieve a homogenous solution and the upper bound of solubility calculated using the total solvent measured prior to achieving a homogenous solution. If the mixture remained heterogeneous (visible solids or murky), the upper bound of solubility was calculated using the total solvent added. Formula used to calculate solubility are listed below. Solvent present in the complex is included in the mass and formula weight of the complexes.

[3] = Rapid GPC of polymers (Mn, Mw, Mz, PDI); format: physicochemical; set-up: Mn / Mw / Mz: unit not given here
Description: For analytical testing, polymer sample solutions were prepared by dissolving polymer in 1,2,4-trichlorobenzene (TCB, 99+% purity from Sigma-Aldrich) containing 2,6-di-tert-butyl-4-methylphenol (BHT, 99% from Aldrich) at 165° C. in a shaker oven for approximately 3 hours. The typical concentration of polymer in solution was between 0.1 to 0.9 mg/mL with a BHT concentration of 1.25 mg BHT/mL of TCB. Samples were cooled to 135° C. for testing.
High temperature size exclusion chromatography was performed using an automated “Rapid GPC” system as described in U.S. Pat. Nos. 6,491,816; 6,491,823; 6,475,391; 6,461,515; 6,436,292; 6,406,632; 6,175,409; 6,454,947; 6,260,407; and 6,294,388; each of which is incorporated herein by reference. Molecular weights (weight average molecular weight (Mw), number average molecular weight (Mn) and z average molecular weight (Mz)) and molecular weight distribution (MWD=Mw/Mn), which is also sometimes referred to as the polydispersity (PDI) of the polymer, were measured by Gel Permeation Chromatography using a Symyx Technology GPC equipped with evaporative light scattering detector (ELSD) and calibrated using polystyrene standards (Polymer Laboratories: Polystyrene Calibration Kit S-M-10: Mp (peak Mw) between 5,000 and 3,390,000). Alternatively, samples were measured by Gel Permeation Chromatography using a Symyx Technology GPC equipped with dual wavelength infrared detector and calibrated using polystyrene standards (Polymer Laboratories: Polystyrene Calibration Kit S-M-10: Mp (peak Mw) between 580 and 3,039,000). […] No column spreading corrections were employed. Numerical analyses were performed using Epoch® software available from Symyx Technologies or Automation Studio software available from Freeslate. The molecular weights obtained are relative to linear polystyrene standards. Molecular weight data is reported in Table 2 under the headings Mn, Mw, Mz and PDI as defined above.

[4] = Propylene polymerization (PP) in small-scale autoclave reactors: yield, quench time, catalyst activity; details: activator A
Text: Solutions of the pre-catalysts were made using toluene (ExxonMobil Chemical—anhydrous, stored under N2) (98%) or isohexane (ExxonMobil Chemical—polymerization grade, and purified as described below). Pre-catalyst solutions were typically 0.25 mmol/L.
Solvents, polymerization grade toluene and/or isohexanes were supplied by ExxonMobil Chemical Co. and are purified by passing through a series of columns: two 500 cc Oxyclear cylinders in series from Labclear (Oakland, Calif), followed by two 500 cc columns in series packed with dried […] (8-12 mesh; Aldrich Chemical Company), and two 500 cc columns in series packed with dried 5 Å mole sieves (8-12 mesh; Aldrich Chemical Company).
Polymerization grade propylene (C3) was used and further purified by passing it through a series of columns: 2250 cc Oxiclear cylinder from Labclear followed by a 2250 cc column packed with 3 Å mole sieves (8-12 mesh; Aldrich Chemical Company), then two 500 cc columns in series packed with 5 Å mole sieves (8-12 mesh; Aldrich Chemical Company), then a 500 cc column packed with Selexsorb CD (BASF), and finally a 500 cc column packed with Selexsorb COS (BASF).
Activation of the pre-catalysts was either by dimethylanilinium tetrakisperfluorophenylborate (Boulder Scientific or Albemarle Corp; Act ID=A) or is (hydrogenated tallow alkyl)methylammonium tetrakis(pentafluorophenyl)borate supplied as a 10 wt % solution in methylcyclohexane (Boulder Scientific; Act ID=B). Activators were typically used as a 0.25 mmol/L solution in toluene or isohexane.
Tri-n-octylaluminum (TnOAl or TNOA, Neat, AkzoNobel) was also used as a scavenger prior to introduction of the activator and pre-catalyst into the reactor. TNOA was typically used as a 5 mmol/L solution in toluene or isohexane.
Polymerizations were conducted in an inert atmosphere (N2) drybox using autoclaves equipped with an external heater for temperature control, glass inserts (internal volume of reactor=23.5 mL for C2 and C2/C8; 22.5 mL for C3 runs), septum inlets, regulated supply of nitrogen, ethylene and propylene, and equipped with disposable PEEK mechanical stirrers (800 RPM). The autoclaves were prepared by purging with dry nitrogen at 110° C. or 115° C. for 5 hours and then at 25° C. for 5 hours.
The reactor was prepared as described above, then heated to 40° C., and then purged with propylene gas at atmospheric pressure. Toluene or isohexanes, liquid propylene (1.0 mL) and scavenger (TNOA, 0.5 μmol) were added via syringe. The reactor was then brought to process temperature (70° C. or 100° C.) while stirring at 800 RPM. The activator solution, followed by the pre-catalyst solution, were injected via syringe to the reactor at process conditions. Reactor temperature was monitored and typically maintained within +/−1° C. Polymerizations were halted by addition of approximately 50 psi compressed dry air gas mixture to the autoclaves for approximately 30 seconds. The polymerizations were quenched based on a predetermined pressure loss (maximum quench value) or for a maximum of 30 minutes. The reactors were cooled and vented. The polymers were isolated after the solvent was removed in-vacuo. The actual quench time (s) is reported as quench time (s). Yields reported include total weight of polymer and residual catalyst. Catalyst activity is reported as grams of polymer per mmol transition metal compound per hour of reaction time (g/mmol·hr).
Polymerization results are collected in Tables 2 below. “Ex #” stands for example number. Example numbers starting with a “C” are comparative examples. “Cat ID” identifies the pre-catalyst used in the experiment. Corresponding numbers identifying the pre-catalyst (also referred to as pre-catalyst, catalyst, complex or compound) are located in the synthetic experimental section. T(° C.) is the polymerization temperature which was typically maintained within +/−1° C. “Yield” is polymer yield, and is not corrected for catalyst residue. […]

[5] = polypropylene made with activator A at 70° C.
[6] = polypropylene made with activator A at 100° C.
[7] = polypropylene made with activator A at 70° C., Mw/Mn
[8] = polypropylene made with activator A at 100° C., Mw/Mn
[9] = polymer made with activator A, T 70 ° C.

| SMILES | Tm [1, 5] | Tm [1, 6] | Solubility (s) in Isohexane [2] [µM] | Solubility (s) in Isohexane (wt %) [2] [wt %] | Mn [3, 5] | Mw [3, 5] | Mz [3, 5] | PDI [3, 7] | Mn [3, 6] | Mw [3, 6] | Mz [3, 6] | PDI [3, 8] | Activity ([4]; T 70° C.) | Activity ([4]; T 100° C.) | Tm [1, 9] [°C] | Mn [3, 9] | Mw [3, 9] | Mz [3, 9] | PDI [3, 9] |
| --- | --- | --- | --- | --- | --- | --- | --- | --- | --- | --- | --- | --- | --- | --- | --- | --- | --- | --- | --- |
| Cc1cc2c(c(C34CC5CC(CC(C5)C3)C4)c1)[O][Zr-]1([CH3])([CH3])[O]c3c(cc(C)cc3C34CC5CC(CC(C5)C3)C4)-c3ccccc3-c3cccc([n+]31)-c1ccccc1-2 [Complex 1] | 147.5 °C and 147.3 °C and 148.1 °C | 145.8 °C and 147.0 °C | <600 | <0.08 | 57,753 and 64,376 and 67,290 | 372,797 and 502,821 and 428,075 | 1,464,190 and 2,141,863 and 1,753,319 | 6.46 and 7.81 and 6.36 | 28,762 and 34,553 and 48,560 | 152,087 and 155,815 and 169,007 | 646,646 and 665,846 and 624,200 | 5.29 and 4.51 and 3.48 | 5,668,800 g P/mmol cat • hr and 7,619,077 g P/mmol cat • hr and 6,920,571 g P/mmol cat • hr | 3,931,500 g P/mmol cat • hr and 4,448,471 g P/mmol cat • hr and 2,644,800 g P/mmol cat • hr | – | – | – | – | – |
| Cc1cc2c(c(C34CC5CC(C)(CC(C)(C5)C3)C4)c1)[O][Hf-]1([CH3])([CH3])[O]c3c(cc(C)cc3C34CC5CC(C)(CC(C)(C5)C3)C4)-c3ccccc3-c3cc(N4CCCC4)cc([n+]31)-c1ccccc1-2 [Complex 30] | 163.3 °C and 163.5 °C and 164.8 °C | 158.0 °C and 158.7 °C and 159.0 °C | – | – | 186,851 and 187,906 and 245,411 | 346,587 and 346,773 and 427,041 | 762,107 and 711,356 and 871,754 | 1.85 and 1.74 | 86,554 and 106,308 and 121,006 | 147,732 and 177,827 and 199,815 | 301,600 and 354,753 and 438,188 | 1.71 and 1.67 and 1.65 | 7,103 g P/mmol cat • hr and 6,836 g P/mmol cat • hr and 8,533 g P/mmol cat • hr | 4,453 g P/mmol cat • hr and 6,707 g P/mmol cat • hr and 8,689 g P/mmol cat • hr | – | – | – | – | – |
| Cc1cc2[n+]3c(c1)-c1ccccc1-c1cc(C(C)(C)C)cc(C45CC6CC(CC(C6)C4)C5)c1[O][Zr-]3([CH3])([CH3])[O]c1c(cc(C(C)(C)C)cc1C13CC4CC(CC(C4)C1)C3)-c1ccccc1-2 [compound 3] | – | – | – | – | – | – | – | – | – | – | – | – | 1,251,771 g P/mmol cat • hr | – | 150.7 | 206,080 | 676,784 | 2,471,266 | 3.28 |
